Measurements taken from patent US20240360145A1, “PYRIMIDINE-2,4-DIAMINE DERIVATIVES AS WELL AS PREPARATION METHOD THEREFOR AND USE THEREOF” (LISEN THERAPEUTICS, INC., priority 2022, published 2024).
Where two headings read alike, the source gives them in different places.

Experiments:
PE062 primary cells = assay: Cell viability IC50 (CCK-8), primary cells PE062 from small cell lung cancer pleural effusion; format: cell-based; details: PE062, CCK-8
Description: (§1) (1) The pleural effusion was poured into a 15 mL or 50 mL of sterilized centrifuge tube for centrifugation. Centrifugation conditions: 800 to 1000 rpm, 5 min.
(§2) (2) The precipitate was resuspended and washed for 2 to 3 times with PBS.
(§3) (3) The cell precipitate was resuspended with complete culture medium (α-MEM medium containing 10% fetal bovine serum and 2% penicillin-streptomycin), and the flocculent matter in the pleural effusion was removed using a sterilized cell sieve.
(§4) (4) The red blood cells in the pleural effusion were removed with lymphocyte separation fluid, and the tumor cells and lymphocyte components were collected. The number of tumor cells was observed under a microscope, and the cells were inoculated.
(§5) (5) After 24 hours, the supernatant was discarded, and fresh culture medium was added for further culture.
(§6) (6) The cell growth status was observed, and it was determined based on the cell status whether the medium was required to be continuously changed to remove blood cells. When the cells grew to a density of 80% to 90%, the cells were preserved.
(§7) (1) Primary cells from lung cancer pleural effusion within 5 generations were cultured to the logarithmic growth phase. […] After centrifugation at room temperature, the supernatant was discarded, and the cell precipitate was resuspended with fresh complete culture medium. After counting, the cells were placed at room temperature for later use. The cells were inoculated into a 384-well plate at a density of 2000 cells/well with a volume of 40 μl/well. The wells at the outermost circle of the plate were not inoculated with cells, and instead, added with sterile water to reduce evaporation of the culture medium.
(§8) (2) After overnight culture of the cells, the medium was discarded, and a fresh medium containing different concentrations of compounds was added at 200 μl/well. The dilution method of the compound was as follows: first the compound with the highest concentration of 10 μM was prepared, and then the compound was diluted for 3 times in sequence. […] At the same time, a blank control group was set up, in which only an equal volume of culture medium was added without adding cells. Five replicate wells were set up for each group. The cells were placed in the incubator for further culture.
(§9) (3) After 72 hours, 8 μl of CCK-8 solution, which was double-diluted with 10 mM PBS, was added to each well, and the cells were shaken and placed in an incubator at 37° C. for further culture for 2 hours.
(§10) (4) The light absorbance value at 450 nm was read using a microplate reader, and the IC50 was calculated according to the absorbance value. The calculation method was the same as above.
(§11) (1) Sample information: PE039, PE052, and PE062 were all primary cell samples from pleural effusion of patients with small cell lung cancer, and LT015 was a primary cell sample from bronchoscopic biopsy of a patient with small cell lung cancer.
(§12) (2) CCK-8 detection was used to detect the IC50 values of different medicaments (compounds).

PE052 primary cells = assay: Cell viability IC50 (CCK-8), primary cells PE052 from small cell lung cancer pleural effusion; format: cell-based; details: PE052, CCK-8
Description: as §1, §2, §3, §4, §5, §6, §7, §8, §9, §10, §11, §12

NCI-H1792 cells = assay: Cell viability IC50 (MTT), AMG510-resistant NCI-H1792 cells; format: cell-based; details: Homo sapiens, NCI-H1792 cells (KRAS G12C)
Description: Non-small cell lung cancer cell lines NCI-H1975, NCI-H1650, and NCI-H1792 were cultured in RPMI-1640 medium containing 10% fetal bovine serum and 1% penicillin-streptomycin. 1% sodium pyruvate was additionally added when culturing NCI-H1975 cells. All the cells were cultured in a constant temperature incubator containing 5% CO2 at 37° C.
(1) The cells were cultured to the logarithmic growth phase. When the confluence reached about 90%, the cells were digested with 0.25% trypsin, and complete medium was added to collect the cells. After centrifugation at room temperature, the supernatant was discarded, and the cell precipitate was resuspended with fresh complete medium. […]
(5) The medium was carefully aspirated off, 100 μl of DMSO was added to dissolve the precipitate formed by the reaction with MTT, shaking and mixing to mix the blue-violet crystals well, and the light absorbance value at 492 nm was read with a microplate reader.
(6) IC50 of the compounds for different cells was calculated based on the light absorption value of each group. Specifically, the absorbance value under treatment with different concentrations of compounds was first subtracted from the absorbance value of the blank well, and then the absorbance value of the 0 μM group was taken as 100% to calculate the cell survival rate after treatment with different concentrations of compounds. […]

LT015 primary cells = assay: Cell viability IC50 (CCK-8), primary cells LT015 from small cell lung cancer bronchoscopic biopsy; format: cell-based; details: LT015, CCK-8
Description: (1) The tissue blocks obtained from the tumor patients were transferred from the preservation solution to the pre-cooled HBSS buffer containing antibiotics, and the tissue blocks were washed for three times with the pre-cooled HBSS buffer.
(2) Tissue was sheared on ice with sterile surgical instruments until no obvious tissue blocks are visible to the naked eye, the tissue fluid was collected into a 15 ml centrifuge tube, and this process takes about 5 to 10 minutes.
(3) Digestive enzymes (collagenase I, collagenase IV and neutral protease being mixed in a ratio of 1:1:1, a concentration of stock solution was 10 mg/ml, diluted with PBS buffer or HBSS buffer, and the use concentration was 1 mg/ml) were added to the centrifuge tube, and after mixing well by pipetting, the centrifuge tube was placed in a 37° C. constant temperature incubator for 1 to 2 hours.
(4) High-glucose medium was added to the centrifuge tube to stop digestion. After mixing well, the cell precipitate was collected by centrifugation, and resuspended with MBM medium (Advanced DMEM-F12+20 ng/ml bFGF+50 ng/ml EGF+1% ITS-X+2% B27+10 μMY-27632+1% PS). The cell suspension was placed in a Matrigel-coated 24-well plate and cultured for 5 to 7 days. When the cell density in the well plate reaches 80-90%, the cells were sub-cultured into a 6 cm cell culture dish, and when they grew to a density of 80% to 90%, the cells were cryopreserved for preservation.
(1) Primary cells from lung cancer pleural effusion within 5 generations were cultured to the logarithmic growth phase. When the confluence reached about 90%, the cells were digested with 0.25% trypsin, and complete culture medium was added to collect the cells. After centrifugation at room temperature, the supernatant was discarded, and the cell precipitate was resuspended with fresh complete culture medium. After counting, the cells were placed at room temperature for later use. The cells were inoculated into a 384-well plate at a density of 2000 cells/well with a volume of 40 μl/well. The wells at the outermost circle of the plate were not inoculated with cells, and instead, added with sterile water to reduce evaporation of the culture medium.
as §8, §9, §10, §11, §12

NCI-H446 cells = assay: Cell viability IC50 (CCK-8), small cell lung cancer cell line H446; format: cell-based; details: H446, CCK-8
Description: (§13) Small cell lung cancer cell lines DMS114, NCI-H1688, NCI-H82, NCI-H146, and NCI-H446 cells were cultured in RPMI-1640 medium containing 10% fetal bovine serum and 1% penicillin-streptomycin. All the cells were cultured in a constant temperature incubator containing 5% CO2 at 37° C.
(§14) Small cell lung cancer is a highly heterogeneous malignant tumor, and its clinical treatment is mainly based on traditional chemotherapy (mainly platinum medicaments and etoposide). In order to study the anti-tumor activity of the compounds of the present disclosure in small cell lung cancer, the CCK-8 method was used to investigate the cell viability IC50 of compound 8 for five small cell lung cancer cell lines.

NCI-H1688 cells = assay: Cell viability IC50 (CCK-8), small cell lung cancer cell line H1688; format: cell-based; details: H1688, CCK-8
Description: as §13, §14

PE043 primary cells = assay: Cell viability IC50 (CCK-8), primary cells PE043 from lung adenocarcinoma pleural effusion resistant to EGFR-TKI; details: read-out: cell viability IC50
DMS114 cells = assay: Cell viability IC50 (CCK-8), small cell lung cancer cell line DMS114; format: cell-based; details: DMS114, CCK-8
Description: as §13, §14

NCI-H82 cells = assay: Cell viability IC50 (CCK-8), small cell lung cancer cell line H82; format: cell-based; details: H82, CCK-8
Description: as §13, §14

PE039 primary cells = assay: Cell viability IC50 (CCK-8), primary cells PE039 from small cell lung cancer pleural effusion; format: cell-based; details: PE039, CCK-8
Description: as §1, §2, §3, §4, §5, §6, §7, §8, §9
(4) The light absorbance value at 450 nm was read using a microplate reader, and the IC50 was calculated according to the absorbance value. The calculation method was the same as above. […]

NCI-H146 cells = assay: Cell viability IC50 (CCK-8), small cell lung cancer cell line H146; format: cell-based; details: H146, CCK-8
Description: as §13, §14

NCI-H1650 cells = assay: Cell viability IC50 (MTT), Gefitinib- and Osimertinib-resistant NCI-H1650 cells; details: Homo sapiens, NCI-H1650, 72 h, read-out: cell viability IC50
NCI-H1975 cells = assay: Cell viability IC50 (MTT), Gefitinib-resistant NCI-H1975 cells
[1] = tested on: small cell lung cancer cell line H446 cells; assay: In vivo antitumor effect in mice bearing small cell lung cancer cell line H446 cells (CDX model)

IC50 (PE062 primary cells) [nM] | SMILES | IC50 (PE052 primary cells) [nM] | IC50 (LT015 primary cells) [nM] | IC50 (PE039 primary cells) [nM] | IC50 (NCI-H446 cells; Homo sapiens, NCI-H446) [nM] | IC50 (NCI-H1688 cells; NCI-H1688) [nM] | IC50 (DMS114 cells; Homo sapiens, DMS-114) [nM] | IC50 (NCI-H146 cells; Homo sapiens, NCI-H146) [nM] | other results
> 10000 | C=CC(=O)N1CCN(c2nc(=O)n(-c3c(C)ccnc3C(C)C)c3nc(-c4c(O)cccc4F)c(F)cc23)[C@@H](C)C1 [AMG510] | > 10000 |  |  |  |  |  |  | IC50 (NCI-H1792 cells): > 10000 nM
1500 | COc1cc2c(Oc3ccc4[nH]c(C)cc4c3F)ccnc2cc1OCC1(N)CC1 [Anlotinib] | 9440 | 2070 |  |  |  |  |  | 
 | CNS(=O)(=O)c1ccccc1Nc1nc(Nc2ccc(CN3C4CCC3CN(C)C4)cc2)ncc1Cl [Compound 15, 2-((5-chloro-2-((4-((3-methyl-3,8-diazabicyclo[3.2.1]octan-8-yl)methyl)phenyl)amino)pyrimidin-4-yl)amino)-N-methylbenzenesulfonamide] |  |  |  | 6.54 | 9.16 | 8.53 | 16.2 | 
900 | C[C@@H](Oc1cc(-c2cnn(C3CCNCC3)c2)cnc1N)c1c(Cl)ccc(F)c1Cl [Crizotinib] |  |  |  |  |  |  |  | 
770 | COc1cc([C@@H]2c3cc4c(cc3[C@@H](O[C@@H]3O[C@@H]5CO[C@@H](C)O[C@H]5[C@H](O)[C@H]3O)[C@H]3COC(=O)[C@H]23)OCO4)cc(OC)c1O [Etoposide] |  | 48200 |  | 1060 | 739 | 917 | 434 | IC50 (NCI-H82 cells; Homo sapiens, NCI-H82): 545 nM
 | Nc1ccn([C@@H]2O[C@H](CO)[C@@H](O)C2(F)F)c(=O)n1 [Gemcitabine] |  |  |  |  |  |  |  | IC50 (PE043 primary cells): > 834000 nM

SMILES | IC50 (PE062 primary cells) [nM] | IC50 (PE052 primary cells) [nM] | IC50 (LT015 primary cells) [nM] | IC50 (PE039 primary cells) [nM] | IC50 (NCI-H446 cells; Homo sapiens, NCI-H446) [nM] | IC50 (NCI-H1688 cells; NCI-H1688) [nM] | IC50 (DMS114 cells; Homo sapiens, DMS-114) [nM] | IC50 (NCI-H146 cells; Homo sapiens, NCI-H146) [nM] | other results
N.N.[Cl][Pt][Cl] [Cisplatin] | 3210 | 885 | 5460 | 11100 |  |  |  |  | IC50 (NCI-H446 cells): 559 nM; IC50 (NCI-H1688 cells): 14100 nM; IC50 (PE043 primary cells; PE043, CCK-8): 31000 nM; IC50 (DMS114 cells): 2150 nM; IC50 (NCI-H82 cells): 1760 nM; IC50 (NCI-H146 cells): 3890 nM
C=CC(=O)Nc1cc(Nc2nccc(-c3cn(C)c4ccccc34)n2)c(OC)cc1N(C)CCN(C)C [Osimertinib] | 2740 | 568 |  | 3990 |  |  |  |  | IC50 (PE043 primary cells): 3370 nM; IC50 (NCI-H1650 cells): 2750 nM; IC50 (NCI-H1975 cells; Homo sapiens, NCI-H1975, 72 h, read-out: cell viability IC50, NCI-H1975 cells, 72 hours, MTT): […]; IC50 (NCI-H1975 cells; read-out: cell viability IC50, NCI-H1975 cells, 72 hours, MTT): […]
CN1CCN(Cc2ccc(Nc3ncc(Cl)c(Nc4ccccc4S(=O)(=O)N(C)C)n3)cc2)CC1 [TP-0903] | 5.1 | 210 | 94.3 | 134 | 276 | 534 | 95.1 | 1540 | IC50 (NCI-H82 cells; Homo sapiens, NCI-H82): 35 nM; inhibitory effect on tumor volume growth compared with blank control (FIG. 1) ([1]; H446 CDX nude mice, intraperitoneal injection, 20 days): no significant inhibitory effect on tumor volume growth; animals survived ([1]; H446 CDX nude mice, intraperitoneal injection, 20 days, compound 8 and TP-0903 15 mg/kg once a day for 13 days, Cisplatin 2.5 mg/kg + Etoposide 4 mg/kg cycles): 11 of 12; body weight changes of nude mice (FIG. 2) ([1]; during the drug administration period, recovered rapidly after drug withdrawal): no significant decrease in body weight
